According to patent US20260091136A1, “USING ENHO GENE THERAPY TO TREAT CARDIOMETABOLIC DISEASE” (University of Pittsburgh-of the Commonwealth System of …, priority 2023, published 2026):
“Also recorded” adds a separate entry of the source.

Assays:
[1] = tested on: HFpEF mice; assay: Body weight during four weeks of daily recombinant Adropin in HFpEF mice (Example 1); type: in vivo; details: for relative body weight (change per mouse between days 0 and 29): p-value<0.0001
From the text: The mouse HFpEF model used in this study was first reported in Schiattarella et al. (2019), Nature 568: 351-356 (PMID: 30971818). Adult C57BL/6N or C57BL/6J mice (i.e. C57BL/6 wildtype) are placed on a diet of either regular chow (“control”), or a high fat diet (60% fat) supplemented with 0.5 g/L L-NAME in drinking water (“HFpEF”) for 5-20 weeks.
(§1) Administration of Recombinant Adropin. Mice received low-fat chow or HFpEF diet for 10 weeks. For the following 4 weeks, the mice were maintained on respective diets and received daily injections of recombinant Adropin. Body weight was measured every day during the four weeks of treatment.

[2] = tested on: HFpEF mice; assay: Cardiac function testing by ultrasonography in HFpEF mice (Example 1); type: in vivo; details: for diastolic function: HFpEF mice, daily Adropin treatment
Protocol: as §1
Cardiac function testing. After 2 weeks, mice were tested using ultrasonography to measure cardiac function and morphology. To determine systolic function and morphology, mice were tested using M-mode echocardiography to measure left ventricle (LV) mass, volume, wall thickness, and contraction (LV ejection fraction and fractional shortening). To determine diastolic function, mice were tested using Doppler to measure LV relaxation and filling (E/A ratio, E/e′ ratio, and isovolumetric relaxation time [IVRT]).

[3] = tested on: HFpEF mice; assay: Glucose tolerance testing (IPGTT) in HFpEF mice (Example 1); type: in vivo; details: for glucose tolerance: HFpEF mice, four weeks of Adropin treatment
Protocol: as §1
Glucose tolerance testing. Glucose tolerance was tested (IPGTT), following a 2 g/kg bolus of glucose. Blood was collected at 15 mins, 30 mins, 45 mins, 60 mins, 90 mins, and 120 mins, and measured using a standard glucometer (Bayer Next EZ). Time-courses for blood glucose uptake will be generated and analyzed for significance using standard statistical tests.

[4] = tested on: GPR19; assay: Wildtype and GPR19-knockout mice on HFpEF diet with or without Adropin; type: in vivo
From the text: Wildtype and GPR19-knockout (GPR19-KO) mice were given normal chow (control mice), HFpEF diet without Adropin, or HFpEF with Adropin.

[5] = tested on: HFpEF mice; assay: Body weight, HFpEF (HFD+L-NAME) mice with daily i.p. recombinant adropin (cohort 2, Examples 3 and 4); type: in vivo, C57BL/6J mice; details: HFpEF+Adropin vs vehicle-treated HFpEF, 450 nmol/kg daily i.p., day 28
From the text: (§2) Twelve week-old C57BL/6J wild-type male mice were exposed to normal chow, or a combination of 60% high fat diet plus N^ω-nitro-L-arginine methyl ester (L-NAME: 0.5 g/L in drinking water) to induce HFpEF. After 8 weeks of diet, mice were randomly assigned to a control HFpEF group, or to a group receiving daily intraperitoneal injections of recombinant Adropin (450 nmol/kg) for the remaining weeks of the study. All animal experiments were approved by the University of Pittsburgh Institutional Animal Care and Use Committee. […] These changes occurred in the absence of systolic dysfunction (FIG. 6). Each marker of cardiac dysfunction was absent in HFpEF mice treated with Adropin (FIG. 6).
Animal Care and Use. Male C57BL/6J 8-week-old mice were obtained from the Jackson Laboratory and maintained on chow for 4 weeks to acclimate to their new environment. Animals were housed in the University of Pittsburgh animal facility under standard conditions with ad libitum access to water and food and maintained on a constant 12-hour light/dark cycle. At 12 weeks of age, the mice were exposed to normal chow (Chow; 60% carbohydrate, 26% protein, 14% fat), or a combination of high-fat diet (HFD; 20% carbohydrate, 20% protein, 60% fat) plus No-nitro-L-arginine methyl ester (L-NAME: 0.5 g/L) supplemented in their drinking water after adjusting the pH to 7.4 with 1N NaOH to induce HFpEF [10]. […]

[6] = tested on: HFpEF mice; assay: Echocardiography, cohort 2; type: in vivo, C57BL/6J mice; details: HFpEF mice treated with Adropin 450 nmol/kg daily i.p.
From the text: as §2
Animal Care and Use. Male C57BL/6J 8-week-old mice were obtained from the Jackson Laboratory and maintained on chow for 4 weeks to acclimate to their new environment. […]
Echocardiography. Mice were anesthetized using isofluorane (1.5%-2.0% v/v by inhalation) and monitored for cardiac functional parameters in the supine position using a Visual Sonics Vevo 3100. […] The left atrial area was quantified in the apical 4-chamber view by tracing the border of the left atrium. Markers of systolic and diastolic function were calculated using standard echocardiography equations. […] Image analysis was performed independently by a blinded sonographer and all parameters were measured at least 3 times, and averages are presented.

[7] = tested on: CPT1b; assay: O-GlcNAc co-immunoprecipitation from heart: CPT1b; type: in vivo, C57BL/6J mice; details: Adropin-treated HFpEF mice, relative to levels in chow mice / HFpEF
From the text: Animal Care and Use. Male C57BL/6J 8-week-old mice were obtained from the Jackson Laboratory and maintained on chow for 4 weeks to acclimate to their new environment. Animals were housed in the University of Pittsburgh animal facility under standard conditions with ad libitum access to water and food and maintained on a constant 12-hour light/dark cycle. At 12 weeks of age, the mice were exposed to normal chow (Chow; 60% carbohydrate, 26% protein, 14% fat), or a combination of high-fat diet (HFD; 20% carbohydrate, 20% protein, 60% fat) plus No-nitro-L-arginine methyl ester (L-NAME: 0.5 g/L) supplemented in their drinking water after adjusting the pH to 7.4 with 1N NaOH to induce HFpEF [10]. For cohort 1, the mice were subject to the HFpEF diet for 15 weeks. For cohort 2, after 8 weeks of diet, mice were randomly assigned to a control or treatment group receiving daily intraperitoneal injections of either vehicle or recombinant adropin at 450 nmol/kg animal weight prepared in PBS with 0.1% BSA for the remaining 5 weeks of the study. L-NAME supplemented drinking water was changed weekly and adropin was made fresh and sterile filtered before each use.
Co-Immunoprecipitation. […] Images were obtained using LiCor Odyssey CLx System and protein densitometry was measured using the LiCor Image Studio Lite Ver. […]

[8] = 2 weeks of Adropin, vs HFpEF mice without treatment
[9] = 2 weeks of Adropin, vs HFpEF mice without treatment, p-value <0.05
[10] = IPGTT AUC analysis, p-value <0.05
[11] = wildtype HFpEF mice that received Adropin vs wildtype control mice

## Adropin: recombinant Adropin peptide hormone encoded by the ENHO gene; full-length (SEQ ID NO: 1) or cleaved product of amino acids 34-76 (SEQ ID NO: 2) (CHSRSADVDSLSESSPNSSPGPCPEKAPPPQKPSHEGSYLLQP)
[1]; HFpEF mice that received Adropin vs HFpEF mice without treatment
  relative body weight (change per mouse between days 0 and 29): significantly lower
[1]; HFpEF mice that received Adropin vs mice on control chow diet
  relative body weight (change per mouse between days 0 and 29): significantly greater
[1]; HFpEF mice which received Adropin versus HFpEF mice which did not, daily Adropin for four weeks, beginning on day 8
  body weight: reduced; also recorded: decrease
[2]; [8]
  average cardiac output: greater
  average ejection fraction: greater
[2]; [9]
  isovolumetric relaxation time (IVRT): significantly lower
  left ventricle myocardial performance index (LV MPI): significantly lower
[2]
  diastolic function: improves
[2]; listed as Recombinant Adropin
  diastolic function: significant increase
[2]; listed as recombinant Adropin
  diastolic function: improved
[2]; following 2 weeks of Adropin, vs HFpEF mice without treatment
  average LV mass: lower
[3]; HFpEF mice that received Adropin, by the 120 minute timepoint
  average blood glucose, IPGTT: gradually decreased to match control chow mice
[3]
  glucose tolerance: increase
[3]; listed as Recombinant Adropin
  glucose tolerance: significant increase
[3]; [10]
  blood glucose AUC of HFpEF mice that received Adropin relative to control chow mice: significantly greater
  blood glucose AUC of HFpEF mice without Adropin relative to HFpEF mice that received Adropin: significantly greater
[4]; GPR19-KO HFpEF mice vs GPR19-KO control mice, in contrast to wildtype, p-value <0.01
  IVRT: significantly greater
[4]; GPR19-KO mice vs control mice, in contrast to wildtype, p-value <0.001
  diastolic function (MV E/e′): remained significantly lower
[4]; GPR19-KO mice, p-value <0.0001
  fasted body weight of HFpEF mice relative to HFpEF mice that received Adropin: significantly greater
[4]; fasted body weight, MV E/e′ and IVRT
  Adropin-mediated improvement of diastolic function in GPR19-KO HFpEF mice: not observed; also recorded: GPR19-dependent
[4]; p-value <0.0001
  body weight of GPR19-KO HFpEF mice that received Adropin relative to wildtype HFpEF mice that received Adropin: significantly greater
[4]; wildtype HFpEF mice that received Adropin vs wildtype HFpEF mice without Adropin
  diastolic function (MV E/e′): increased on average
[4]; [11]
  IVRT: not significantly different
  diastolic function (MV E/e′): not significantly different
[4]; wildtype HFpEF which received Adropin vs wildtype HFpEF mice without treatment, p-value <0.01
  IVRT: significantly lower
[4]; wildtype mice, p-value <0.0001
  fasted body weight of HFpEF mice relative to HFpEF mice that received Adropin: significantly greater
[5]
  absolute body weight: not associated with a significant decrease; also recorded: does not significantly change
[5]; listed as adropin
  absolute body weight: non-significant decrease
[6]
  markers of cardiac (diastolic) dysfunction: increased heart/LV mass, decreased cardiac output, increased IVRT, increased LV MPI: absent; also recorded: improved
[6]; listed as adropin
  markers of cardiac (diastolic) dysfunction: increased heart/LV mass, decreased cardiac output, increased IVRT, increased LV MPI: absent; also recorded: attenuates
[7]
  CPT1b O-GlcNAcylation: restored; also recorded: reduced
